Measured values published in the supplement of paper PMC6045584.
± gives the standard deviation of the averaged measurements.

Key:
BMN-673 [1] = compound: T1, Cn1ncnc1[C@H]1c2n[nH]c(=O)c3cc(F)cc(c23)N[C@@H]1c1ccc(F)cc1 [BMN-673]; assay: surviving fraction relative to DMSO-only wells; higher = less growth inhibition; settings: exposure time: 5 days
In short: (§1)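 At 250–500 cells per well in 384-well plates, log-phase tumour cell lines were seeded and, 24 hours on, exposed continuously for five days to inhibitors at 0.5, 1, 5, 10, 50, 100, 500 and 1000 nM. Viability readout was CellTiter-Glo luminescence, reported as surviving fraction normalised to the median of DMSO-only wells.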

AFIMOXIFENE = compound: CC/C(=C(\c1ccc(O)cc1)c1ccc(OCCN(C)C)cc1)c1ccccc1 [AFIMOXIFENE]; assay: area under dose-response curve of surviving fraction (unscaled, Aref=0) (surviving fraction x log10(nM)); higher = more resistant; settings: exposure time: 5 days; dose range 0.5-1000 nM
In short: (§2)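 Tumour cell lines in 384-well plates were exposed for five days to eight inhibitor concentrations from 0.5 to 1000 nM. Viability was read by CellTiter-Glo luminescence, normalised to DMSO-only wells, in three screens per line. Dose-response survival curves were fitted to surviving fractions by 3-parameter logistic regression in the drc R package. Area under the curve is the unscaled activity area (Aref = 0) over log10 dose.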

IMATINIB = compound: Cc1ccc(NC(=O)c2ccc(CN3CCN(C)CC3)cc2)cc1Nc1nccc(-c2cccnc2)n1 [IMATINIB]; assay: as above; settings: exposure time: 5 days; dose range 0.5-1000 nM
In short: as §2

NILOTINIB = compound: Cc1cn(-c2cc(NC(=O)c3ccc(C)c(Nc4nccc(-c5cccnc5)n4)c3)cc(C(F)(F)F)c2)cn1 [NILOTINIB]; assay: as above; settings: exposure time: 5 days; dose range 0.5-1000 nM
In short: as §2

BMN-673 [2] = compound: T1, BMN-673; assay: as above; settings: exposure time: 5 days; dose range 0.5-1000 nM
In short: as §2

BEZ-235 = compound: Cn1c(=O)n(-c2ccc(C(C)(C)C#N)cc2)c2c3cc(-c4cnc5ccccc5c4)ccc3ncc21 [BEZ-235]; assay: surviving fraction relative to DMSO-only wells; higher = less growth inhibition; settings: exposure time: 5 days
In short: as §1

Test System | surviving fraction (BMN-673 [1]; 0.5 nM) | surviving fraction (BMN-673 [1]; 1 nM) | surviving fraction (BMN-673 [1]; 5 nM) | surviving fraction (BMN-673 [1]; 10 nM) | surviving fraction (BMN-673 [1]; 50 nM) | surviving fraction (BMN-673 [1]; 100 nM) | surviving fraction (BMN-673 [1]; 500 nM) | surviving fraction (BMN-673 [1]; 1000 nM) | area under dose-response curve (AFIMOXIFENE) | area under dose-response curve (IMATINIB) | area under dose-response curve (NILOTINIB) | area under dose-response curve (BMN-673 [2]) | surviving fraction (BEZ-235; 0.5 nM) | surviving fraction (BEZ-235; 1 nM) | surviving fraction (BEZ-235; 5 nM) | surviving fraction (BEZ-235; 10 nM) | surviving fraction (BEZ-235; 50 nM) | surviving fraction (BEZ-235; 100 nM) | surviving fraction (BEZ-235; 500 nM) | surviving fraction (BEZ-235; 1000 nM)
CCK81 LARGE INTESTINE | 0.838 ± 0.087 | 0.781 ± 0.094 | 0.733 ± 0.091 | 0.619 ± 0.092 | 0.54 ± 0.034 | 0.552 ± 0.03 | 0.493 ± 0.079 | 0.406 ± 0.058 | 2.84 | 2.6 | 2.58 | 2.04 |  |  |  |  |  |  |  | 
G292 BONE | 1.02 ± 0.058 | 0.933 ± 0.033 | 0.923 ± 0.041 | 0.846 ± 0.048 | 0.732 ± 0.045 | 0.698 ± 0.016 | 0.54 ± 0.035 | 0.459 ± 0.015 | 3.18 | 3.31 | 3.44 | 2.57 | 1.02 ± 0.026 | 0.987 ± 0.027 | 0.974 ± 0.025 | 0.982 ± 0.036 | 0.526 ± 0.032 | 0.357 ± 0.0091 | 0.202 ± 0.0096 | 0.163 ± 0.0093
HCC38 BREAST | 1.06 ± 0.11 | 0.92 ± 0.2 | 0.778 ± 0.14 | 0.603 ± 0.11 | 0.585 ± 0.084 | 0.43 ± 0.065 | 0.301 ± 0.046 | 0.253 ± 0.031 | 3.66 |  | 2.77 | 2 | 1.33 ± 0.21 | 1.21 ± 0.094 | 1.19 ± 0.037 | 1.2 ± 0.1 | 0.862 ± 0.013 | 0.666 ± 0.035 | 0.291 ± 0.041 | 0.278 ± 0.054
HCC70 BREAST | 1.05 ± 0.11 | 1.05 ± 0.11 | 1.12 ± 0.069 | 0.977 ± 0.065 | 0.789 ± 0.054 | 0.657 ± 0.074 | 0.411 ± 0.1 | 0.341 ± 0.022 | 3.6 | 3.79 | 3.93 | 2.62 | 1.1 ± 0.04 | 1.08 ± 0.075 | 1.02 ± 0.082 | 1.13 ± 0.1 | 0.836 ± 0.1 | 0.599 ± 0.068 | 0.347 ± 0.034 | 0.296 ± 0.025
HMLE3 BREAST | 1.08 ± 0.048 | 1.11 ± 0.053 | 1 ± 0.2 | 0.902 ± 0.1 | 0.644 ± 0.035 | 0.604 ± 0.03 | 0.339 ± 0.056 | 0.277 ± 0.036 | 3.71 | 3.75 | 3.97 | 2.43 | 1.03 ± 0.092 | 0.966 ± 0.069 | 0.961 ± 0.036 | 0.929 ± 0.047 | 0.582 ± 0.035 | 0.315 ± 0.011 | 0.111 ± 0.0049 | 0.0777 ± 0.0078
HMT3552 BREAST | 1.01 ± 0.064 | 0.943 ± 0.036 | 0.889 ± 0.047 | 0.775 ± 0.073 | 0.713 ± 0.063 | 0.574 ± 0.01 | 0.375 ± 0.026 | 0.264 ± 0.0075 | 3.53 | 3.57 | 3.47 | 2.34 | 1.09 | 1.05 | 1.01 | 1.02 | 0.681 | 0.466 | 0.186 | 0.191
HS57T BREAST | 1.04 ± 0.03 | 0.984 ± 0.037 | 1.04 ± 0.076 | 1.03 ± 0.076 | 0.969 ± 0.084 | 0.82 ± 0.074 | 0.619 ± 0.057 | 0.513 ± 0.04 |  |  |  |  | 1.08 ± 0.039 | 1.03 ± 0.033 | 0.916 ± 0.027 | 0.826 ± 0.016 | 0.335 ± 0.021 | 0.258 ± 0.0071 | 0.186 ± 0.009 | 0.181 ± 0.011
HS578T BREAST | 1.02 ± 0.035 | 1.14 ± 0.14 | 1.05 ± 0.091 | 0.958 ± 0.12 | 0.902 ± 0.075 | 0.841 ± 0.043 | 0.669 ± 0.076 | 0.61 ± 0.087 | 3.68 | 3.7 | 2.81 | 2.94 | 1.13 ± 0.15 | 0.972 ± 0.15 | 0.997 ± 0.18 | 0.817 ± 0.092 | 0.46 ± 0.028 | 0.384 ± 0.026 | 0.263 ± 0.027 | 0.257 ± 0.02
